Measured values from patent US12491452B2, “Extraction method and composition obtained therefrom” (NATURALIA INGREDIENTS S.R.L., priority 2018, dated 2025).
Read-outs that look alike come from different tables or passages of the source.

How the values were obtained:
[1] = cited from earlier work
[2] = cited from earlier work; remark: listed apart in the source
[3] = Stability of CBDA and CBD in inclusion complexes of Eletta Campana CS inflorescence and HP-β-CD in water, HPLC-UV; assay type: physicochemical; conditions: for cannabinoid concentration: HP-β-CD aqueous extract
Procedure: The official method reported in the German Pharmacopoeia of Cannabis Flos (https://www.MonographCannabisFlos.pdf) comprises three extraction and filtering cycles of 500 mg of inflorescence with 20, 12.5 and 12.5 mL of ethanol 96% respectively. The ethanol liquid phase was brought to a volume of 50 mL in a volumetric flask with clean 96% ethanol. Said extract was filtered on a regenerated cellulose filter with pore diameter 0.45 μm. A 1 mL portion was diluted with 9 mL of 96% ethanol for chromatographic analysis. For each cannabinoid a calibration curve was constructed for the quantification thereof within the extracts and in the aqueous formulations of the inclusion complexes with the inflorescence. The calibration curve was constructed with certified standards (Cerilliant Cannabinoid Reference Standards, Cerilliant Corporation, Texas, USA) in a concentration range of 0.25-1.00 μg/mL. The titrations were performed following the method published by Citti et al. [Citti et al., Journal of Pharmaceutical and Biomedical Analysis 2016, 128, 201-209] with the use of high-performance liquid chromatography coupled with a UV detector (HPLC-UV).
After filtering, both the solutions were then transferred to an amber-colored closed container. One container was kept at ambient temperature (25° C.) in the dark and the other in the refrigerator at 8° C. The concentration of the cannabinoids, in the particular example of CBDA and CBD, was measured at different times to verify the stability thereof, analyzing a portion by HPLC-UV. […] The percentage CBDA concentration difference with reference to time 0 is indicated in brackets.

Compound	Solubility in pure water (mg/ml) at approx. 25° C. [1] [mg/mL]	cannabinoid concentration ([3]; 8° C., 0 days) [µg/mL]	cannabinoid concentration ([3]; 8° C., 14 days) [µg/mL]	cannabinoid concentration ([3]; 8° C., 45 days) [µg/mL]	cannabinoid concentration ([3]; 8° C., 60 days) [µg/mL]	cannabinoid concentration ([3]; 8° C., 100 days) [µg/mL]	cannabinoid concentration ([3]; 25° C. in the dark, 0 days) [µg/mL]	cannabinoid concentration ([3]; 25° C. in the dark, 14 days) [µg/mL]	cannabinoid concentration ([3]; 25° C. in the dark, 45 days) [µg/mL]	cannabinoid concentration ([3]; 25° C. in the dark, 60 days) [µg/mL]	cannabinoid concentration ([3]; 25° C. in the dark, 100 days) [µg/mL]	other results
Sodium salt of β-CD sulfobutyl ether	>500											
C=C(C)[C@@H]1CCC(C)=C[C@H]1c1c(O)cc(CCCCC)cc1O [CBD, 2-[(1R,6R)-3-methyl-6-(prop-1-en-2-yl)cyclohex-2-enyl]-5-pentylbenzene-1,3-diol, reference compound]		0.16	0.12	0.17	0.14	0.17	0.14	0.56	0.78	1.10	2.93	drop of concentration in water ([2]; infusion without CD, 25° C., period of 7 days): 60%; drop of concentration in water ([2]; tisane without CD kept at 4° C., 7 days): 50%; stability of the formulation (in words) ([3]; formulation kept at 8° C., 100 days): remain surprisingly stable
C=C(C)[C@@H]1CCC(C)=C[C@H]1c1c(O)cc(CCCCC)c(C(=O)O)c1O [CBDA, 2,4-Dihydroxy-3-[(1R,6R)-3-methyl-6-(1-methylethenyl)-2-cyclohexen-1-yl]-6-pentylbenzoic acid]		6.81	6.94	6.91	6.86	6.91	6.45	5.81	4.47	3.38	3.21	time beyond which stability in water is not guaranteed ([2]; infusion without CD, both at 25° C. and at 4° C.): ≤ 14 days; stability of the formulation (in words) [3]: loss (albeit very slow; percentage CBDA concentration difference with reference to time 0 ([3]; 8° C., 14 days): +1.8%; percentage CBDA concentration difference with reference to time 0 ([3]; 8° C., 45 days): +1.4%; percentage CBDA concentration difference with reference to time 0 ([3]; 8° C., 60 days): +0.6%; percentage CBDA concentration difference with reference to time 0 ([3]; 8° C., 100 days): +1.4%; percentage CBDA concentration difference with reference to time 0 ([3]; 25° C., 14 days): −9.9%; percentage CBDA concentration difference with reference to time 0 ([3]; 25° C., 45 days): −30.7%; percentage CBDA concentration difference with reference to time 0 ([3]; 25° C., 60 days): −47.6%; percentage CBDA concentration difference with reference to time 0 ([3]; 25° C., 100 days): −50.1%
Randomly methylated β-Cyclodextrin	>500											
2-Hydroxypropyl-γ-cyclodextrin	>500											
2-hydroxypropyl-β-cyclodextrin	>600											
